Structures are written as SMILES. Where only a bound is given, the exact number is not on record here.

The assay has as its system mutant Huntington (HTT) protein. Kind of assay: HTT Mutant HTRF iPSC assay (mHTT protein lowering). It counts as cell-based. The conditions noted are these: human iPSC derived from a HTT patient with a poly-Q49 mutation.
Regarding `Cc1nc2ccc(-c3cc(F)c4nc(C5CCNCC5)cn4c3)cn2n1` [Compound 37, 6-(8-fluoro-2-(piperidin-4-yl)imidazo[1,2-a]pyridin-6-yl)-2-methyl-[1,2,4]triazolo[1,5-a]pyridine], the concentration for half-maximal inhibition (IC50) was 1000 to 9000 nM.

The molecule `Cc1cn2nc(-c3cc(F)c4nc(NC(=O)C5CNC5)cn4c3)cc(C)c2n1` [Compound 294, N-[6-(2,8-dimethylimidazo[1,2-b]pyridazin-6-yl)-8-fluoro-imidazo[1,2-a]pyridin-2-yl]azetidine-3-carboxamide] gave a concentration for half-maximal inhibition (IC50) of less than 100 nM.

In the case of `Cc1cn2nc(-c3cc(F)c4nc(N(C)C5CCNC(C)(C)C5)oc4c3)cc(C)c2n1` (single isomer, unassigned) [Compound 509], the IC50 fell in the range of 100 to 1000 nM.

`CN1CC2(c3cn4cc(-c5cc(F)c6nn(C)cc6c5)cc(F)c4n3)CC1C2` [Compound 66, 7-fluoro-5-[8-fluoro-2-(2-methyl-2-azabicyclo[2.1.1]hexan-4-yl)imidazo[1,2-a]pyridin-6-yl]-2-methyl-indazole] had an IC50 of 1000 to 9000 nM.

Regarding `COCCN1CCC(Nc2nc3c(F)cc(-c4cc(C)c5nc(C)cn5n4)cc3o2)CC1` [Compound 480, 6-(2,8-dimethylimidazo[1,2-b]pyridazin-6-yl)-4-fluoro-N-(1-(2-methoxyethyl)piperidin-4-yl)benzo[d]oxazol-2-amine], the IC50 is less than 100 nM.

`Cc1cn2nc(-c3cc(F)c4nn(C5CCNCC5)nc4c3)cc(C3CC3)c2n1` [Compound 387, 6-(8-cyclopropyl-2-methylimidazo[1,2-b]pyridazin-6-yl)-4-fluoro-2-(piperidin-4-yl)-2H-benzo[d][1,2,3]triazole] showed an IC50 of 100 to 1000 nM.

Regarding `Cc1cn2nc(-c3cc(F)c4nc(C5CCN(C6CC6)CC5)nn4c3)cc(C)c2n1` [Compound 433, 2-(1-cyclopropylpiperidin-4-yl)-6-(2,8-dimethylimidazo[1,2-b]pyridazin-6-yl)-8-fluoro-[1,2,4]triazolo[1,5-a]pyridine], the half-maximal inhibitory concentration (IC50) lay in the range of 100 to 1000 nM.

Regarding `Cc1cn2nc(-c3ccc4nc([C@H]5[C@@H]6CN(C)C[C@@H]65)cn4c3)cc(C)c2n1` [Compound 554, 2,8-dimethyl-6-(2-((1R,5S,6r)-3-methyl-3-azabicyclo[3.1.0]hexan-6-yl)imidazo[1,2-a]pyridin-6-yl)imidazo[1,2-b]pyridazine], the IC50 is 100 to 1000 nM.

Regarding `Cc1cn2cc(-c3cc(OC(F)F)c4nc(C5CCNCC5)cn4c3)cc(F)c2n1` [Compound 536, 8-(difluoromethoxy)-8′-fluoro-2′-methyl-2-(piperidin-4-yl)-6,6′-biimidazo[1,2-a]pyridine], the 50% inhibitory concentration (IC50) lay within 100 to 1000 nM.

With `Cc1cn2nc(-c3cc(F)c4[nH]c(C5CC6CCC(C5)N6)nc4c3)cc(C)c2n1` (stereo not shown) [Compound 428, 6-(2-(8-azabicyclo[3.2.1]octan-3-yl)-7-fluoro-1H-benzo[d]imidazol-5-yl)-2,8-dimethylimidazo[1,2-b]pyridazine], the IC50 is less than 100 nM.

In turn, `Cc1cn2nc(-c3cc(F)c4nc(N5CCC6(CCN(C)CC6)C5)oc4c3)cc(C(F)F)c2n1` [Compound 507, 6-(8-(difluoromethyl)-2-methylimidazo[1,2-b]pyridazin-6-yl)-4-fluoro-2-(8-methyl-2,8-diazaspiro[4.5]decan-2-yl)benzo[d]oxazole] came in with an IC50 of less than 100 nM.

The molecule `Cc1cn2nc(-c3cc(F)c4nc([C@H]5C[C@@]6(CN[C@H](C)C6)C5)cn4c3)cc(C)c2n1` (single isomer, unassigned) [Compound 176, 6-(8-fluoro-2-((2S*,4r,7S*)-7-methyl-6-azaspiro[3.4]octan-2-yl)imidazo[1,2-a]pyridin-6-yl)-2,8-dimethylimidazo[1,2-b]pyridazine] registered an IC50 of less than 100 nM.

`Cc1cn2nc(-c3cc(F)c4nc(N5CCC6(CCN(C)CC6)CC5)oc4c3)cc(C)c2n1` [Compound 515, 6-(2,8-dimethylimidazo[1,2-b]pyridazin-6-yl)-4-fluoro-2-(9-methyl-3,9-diazaspiro[5.5]undecan-3-yl)benzo[d]oxazole] registered an IC50 of 100 to 1000 nM.

In the case of `Cc1cn2nc(-c3cc(F)c4nc(C5CCNC(C)C5)cn4c3)ccc2n1` (stereo not shown) [Compound 61, 6-(8-fluoro-2-(2-methylpiperidin-4-yl)imidazo[1,2-a]pyridin-6-yl)-2-methylimidazo[1,2-b]pyridazine], the IC50 was less than 100 nM.

`Cc1cn2nc(-c3cc(F)c4nc(CC5CCN(C)CC5)nn4c3)cc(C)c2n1` [Compound 448, 6-(2,8-dimethylimidazo[1,2-b]pyridazin-6-yl)-8-fluoro-2-((1-methylpiperidin-4-yl)methyl)-[1,2,4]triazolo[1,5-a]pyridine] came in with a concentration for half-maximal inhibition (IC50) of 100 to 1000 nM.

For `COc1cc(-c2cc(C)c3nc(C)nn3n2)cn2cc([C@H]3[C@@H]4CN(C)C[C@@H]43)nc12` [Compound 541, 6-(8-methoxy-2-((1R,5S,6r)-3-methyl-3-azabicyclo[3.1.0]hexan-6-yl)imidazo[1,2-a]pyridin-6-yl)-2,8-dimethyl-[1,2,4]triazolo[1,5-b]pyridazine], the half-maximal inhibitory concentration (IC50) lay in the range of 100 to 1000 nM.

Regarding `COc1cc(-c2cc(C)c3nc(C)nn3c2)cc2cn(C3CCNCC3)nc12` [Compound 547, 6-(7-methoxy-2-(piperidin-4-yl)-2H-indazol-5-yl)-2,8-dimethyl-[1,2,4]triazolo[1,5-a]pyridine], the IC50 lay within 1000 to 9000 nM.

In the case of `Cc1cn2nc(-c3cc(F)c4nc(C5CCNCC5)cn4c3)cc2c(C)n1` [Compound 195, 2-(8-fluoro-2-(piperidin-4-yl)imidazo[1,2-a]pyridin-6-yl)-4,6-dimethylpyrazolo[1,5-a]pyrazine], the half-maximal inhibitory concentration (IC50) is less than 100 nM.

The molecule `Cc1cn2nc(-c3cc(F)c4nc([C@H]5[C@@H]6CN(C)C[C@@H]65)nn4c3)cc(C)c2n1` [Compound 453, 6-(2,8-dimethylimidazo[1,2-b]pyridazin-6-yl)-8-fluoro-2-[(1S,5R)-3-methyl-3-azabicyclo[3.1.0]hexan-6-yl]-[1,2,4]triazolo[1,5-a]pyridine] showed an IC50 of 100 to 1000 nM.

`Cc1cn2nc(-c3cc(F)c4nc([C@H]5[C@@H]6CN(C)C[C@@H]65)cn4c3)cc(C(F)F)c2n1` [Compound 233, 8-(difluoromethyl)-6-(8-fluoro-2-((1R,5S,6r)-3-methyl-3-azabicyclo[3.1.0]hexan-6-yl)imidazo[1,2-a]pyridin-6-yl)-2-methylimidazo[1,2-b]pyridazine]: the IC50 was less than 100 nM.

Regarding `CCN1CCC(c2cn3cc(-c4ccc5nc(C)cn5c4)cc(F)c3n2)CC1` [Compound 8, 2-(1-ethylpiperidin-4-yl)-8-fluoro-2′-methyl-6,6′-biimidazo[1,2-a]pyridine], the IC50 was 1000 to 9000 nM.

Regarding `O=C1Cc2cc(-c3cc(F)c4nc(C5CCNCC5)cn4c3)cc(F)c2N1` [Compound 57, 7-fluoro-5-(8-fluoro-2-(piperidin-4-yl)imidazo[1,2-a]pyridin-6-yl)indolin-2-one], the IC50 fell in the range of 1000 to 9000 nM.

With `Cc1cn2nc(-c3cc(F)c4nc(NC(=O)C5CN(CCF)C5)cn4c3)cc(C)c2n1` [Compound 266, N-(6-(2,8-dimethylimidazo[1,2-b]pyridazin-6-yl)-8-fluoroimidazo[1,2-a]pyridin-2-yl)-1-(2-fluoroethyl)azetidine-3-carboxamide], the IC50 was less than 100 nM.

With `Cc1cn2nc(-c3cc(C)c4nc(C5CCNCC5)cn4c3)cc(C)c2n1` [Compound 555, 2,8-dimethyl-6-(8-methyl-2-(piperidin-4-yl)imidazo[1,2-a]pyridin-6-yl)imidazo[1,2-b]pyridazine], the half-inhibitory concentration (IC50) was in the range of 100 to 1000 nM.

As to `Cc1cn2nc(-c3cc(F)c4nc(NC(=O)C5CC6(CNC6)C5)cn4c3)cc(C)c2n1` [Compound 276], the half-maximal inhibitory concentration (IC50) lay within 100 to 1000 nM.

The molecule `COc1cc(-c2cc(C#N)c3nc(C)cn3c2)cc2cn(C3CCNCC3)nc12` [Compound 546, 6-(7-methoxy-2-(piperidin-4-yl)-2H-indazol-5-yl)-2-methylimidazo[1,2-a]pyridine-8-carbonitrile] registered a 50% inhibitory concentration (IC50) of 1000 to 9000 nM.

In the case of `CCN1C[C@@H]2[C@H](C1)[C@H]2c1cn2cc(-c3cc(C)c4nc(C)cn4n3)cc(F)c2n1` [Compound 188, 6-(2-((1R,5S,6r)-3-ethyl-3-azabicyclo[3.1.0]hexan-6-yl)-8-fluoroimidazo[1,2-a]pyridin-6-yl)-2,8-dimethylimidazo[1,2-b]pyridazine], the IC50 was 100 to 1000 nM.

`Cc1cn2nc(-c3cc(F)c4nc([C@@H]5C6CCN(C)CC65)cn4c3)cc(C)c2n1` (stereo partly drawn) [Compound 231, 6-(8-fluoro-2-((7R)-3-methyl-3-azabicyclo[4.1.0]heptan-7-yl)imidazo[1,2-a]pyridin-6-yl)-2,8-dimethylimidazo[1,2-b]pyridazine] showed a 50% inhibitory concentration (IC50) of less than 100 nM.

`Fc1cc(-c2ccc3[nH]ncc3c2)cn2cc(C3CCNCC3)nc12` [Compound 59, 5-(8-fluoro-2-(piperidin-4-yl)imidazo[1,2-a]pyridin-6-yl)-1H-indazole] returned an IC50 of 1000 to 9000 nM.

The molecule `Cc1cn2nc(-c3cc(F)c4nc(C5CCNC(C)(C)C5)cn4c3)cc(C)c2n1` (single isomer, unassigned) [Compound 235] gave a half-maximal inhibitory concentration (IC50) of less than 100 nM.

For `COc1cc(-c2cc(F)c3nc(C4CCNCC4)cn3c2)cn2cc(C)nc12` [Compound 89, 8-fluoro-8′-methoxy-2′-methyl-2-(piperidin-4-yl)-6,6′-biimidazo[1,2-a]pyridine], the IC50 was in the range of 100 to 1000 nM.

With `Cc1cn2nc(-c3cc(F)c4nn(C5CCN(C)CC5)cc4c3)cc(C(F)F)c2n1` [Compound 363, 8-(difluoromethyl)-6-(7-fluoro-2-(1-methylpiperidin-4-yl)-2H-indazol-5-yl)-2-methylimidazo[1,2-b]pyridazine], the IC50 was less than 100 nM.

Molecule `CCN1CCC(Nc2nc3c(F)cc(-c4cc(C)c5nc(C)cn5n4)cc3o2)CC1` [Compound 479, 6-(2,8-dimethylimidazo[1,2-b]pyridazin-6-yl)-N-(1-ethylpiperidin-4-yl)-4-fluorobenzo[d]oxazol-2-amine] gave a 50% inhibitory concentration (IC50) of less than 100 nM.

`Cc1cn2nc(-c3cc(F)c4nn(C5CC6(CCNC6)C5)nc4c3)cc(C)c2n1` (stereo not shown) [Compound 398, 6-(2,8-dimethylimidazo[1,2-b]pyridazin-6-yl)-4-fluoro-2-(6-azaspiro[3.4]octan-2-yl)-2H-benzo[d][1,2,3]triazole] registered an IC50 of less than 100 nM.
